Results on 1 compound are retold here after publication PMC467104, “Novel NO-TZDs and trimethoxychalcone-based DHPMs: design, synthesis, and biological evaluation as potential VEGFR-2 inhibitors” (Journal of Enzyme Inhibition and Medicinal Chemistry, 2024).

What is called IC50 is the point on the concentration scale where inhibition reaches its midpoint.

This test concerns the target T1, VEGFR-2 (Homo sapiens, UniProt P35968).
T1 construct: gene KDR
Briefly: BPS Bioscience KDR kinase assay (Kinase-Glo Max/ADP-Glo luminescence). It counts as biochemical. For orientation: In Kinase-Glo more light means more ATP remaining.

T1 sequence (P35968 20-1356): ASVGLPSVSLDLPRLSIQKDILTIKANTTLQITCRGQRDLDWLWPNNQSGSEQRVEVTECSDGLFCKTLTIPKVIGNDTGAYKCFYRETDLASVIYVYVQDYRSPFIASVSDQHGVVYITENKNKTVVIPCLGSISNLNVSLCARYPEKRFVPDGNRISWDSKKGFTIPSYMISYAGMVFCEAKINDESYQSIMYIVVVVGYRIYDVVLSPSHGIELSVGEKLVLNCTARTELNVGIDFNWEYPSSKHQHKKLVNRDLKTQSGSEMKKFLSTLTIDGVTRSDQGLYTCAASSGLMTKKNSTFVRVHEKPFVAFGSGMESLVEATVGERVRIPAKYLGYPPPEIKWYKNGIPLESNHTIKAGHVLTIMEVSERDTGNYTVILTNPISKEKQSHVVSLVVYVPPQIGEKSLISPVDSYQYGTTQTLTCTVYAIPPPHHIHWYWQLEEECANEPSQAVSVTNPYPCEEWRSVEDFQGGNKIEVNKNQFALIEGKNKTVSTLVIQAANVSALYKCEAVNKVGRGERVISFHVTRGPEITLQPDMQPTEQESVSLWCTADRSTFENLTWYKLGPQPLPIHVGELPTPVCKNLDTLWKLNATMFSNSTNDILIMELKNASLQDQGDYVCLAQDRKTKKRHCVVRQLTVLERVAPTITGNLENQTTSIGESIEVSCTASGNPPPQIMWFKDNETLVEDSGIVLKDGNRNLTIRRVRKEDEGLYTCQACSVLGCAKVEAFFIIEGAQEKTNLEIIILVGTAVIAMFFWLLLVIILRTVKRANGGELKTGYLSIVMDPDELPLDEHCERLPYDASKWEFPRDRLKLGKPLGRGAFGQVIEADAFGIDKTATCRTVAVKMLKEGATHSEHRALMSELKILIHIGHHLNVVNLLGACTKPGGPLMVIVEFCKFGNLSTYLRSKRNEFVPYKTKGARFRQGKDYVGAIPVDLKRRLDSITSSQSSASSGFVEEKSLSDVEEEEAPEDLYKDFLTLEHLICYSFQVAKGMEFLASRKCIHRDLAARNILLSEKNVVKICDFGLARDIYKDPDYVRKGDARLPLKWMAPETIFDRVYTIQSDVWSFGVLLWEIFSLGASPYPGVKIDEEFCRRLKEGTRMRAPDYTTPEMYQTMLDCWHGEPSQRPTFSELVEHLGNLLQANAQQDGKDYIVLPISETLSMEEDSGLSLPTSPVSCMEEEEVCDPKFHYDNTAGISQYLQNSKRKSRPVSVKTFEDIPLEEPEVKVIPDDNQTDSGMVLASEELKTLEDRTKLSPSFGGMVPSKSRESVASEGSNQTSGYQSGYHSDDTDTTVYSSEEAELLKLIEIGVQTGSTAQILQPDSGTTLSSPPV

With `CCOC(=O)C1=C(C)NC(SCC(=O)Nc2ccc(C(=O)/C=C/c3cc(OC)c(OC)c(OC)c3)cc2)=N[C@@H]1c1ccc(O)c(OC)c1` [CDHPM-10e, Ethyl (R,E)-4–(4-hydroxy-3-methoxyphenyl)-6-methyl-2-((2-oxo-2-((4–(3-(3,4,5-trimethoxyphenyl)acryloyl)phenyl)amino)ethyl)thio)-1,4-dihydropyrimidine-5-carboxylate], it took 112 nM to reach half-maximal inhibition (IC50).
